Experimental data published in US20110144127A1, “AGENTS FOR TREATMENT OF GLAUCOMATOUS RETINOPATHY AND OPTIC NEUROPATHY” (ALCON INC., priority 2003, published 2011).

Legend:
[1] = system: cultured adult rat retinal ganglion cells; assay: Glutamate-induced toxicity in cultured adult rat retinal ganglion cells (survival by counting Thy-1-positive healthy cells); type: cell-based
Method: Cells were treated with the indicated compounds for 3 days. Survival was assayed by counting Thy-1-positive healthy cells. The asterisk * represents a significant difference from the control values by one-way ANOVA analysis of variance between groups, then Dunnett's test.
Adult Sprague-Dawley rats were euthanized by CO2 asphyxiation. Their eyes were enucleated and placed in NEUROBASAL™ medium (Gibco, Gaithersburg, Md.). The retina from each eye was detached and isolated. Retinal cells were dissociated by combining up to 20 retinae with 5 mL of papain solution containing 10 mg papain, 2 mg DL-cysteine, and 2 mg bovine serum albumin in 5 ml of NEUROBASAL™ medium, for 25 min at 37° C., then washed 3 times with 5 mL RGC medium (NEUROBASAL™) medium supplemented as cited in Example 2 and with 1% fetal calf serum. Retinal pieces were triturated by passing through a fire-polished disposable pipet several times until cells were dispersed. The cell suspension was placed onto a poly-D-lysine- and laminin-coated 8-well chambered culture slide. […] The cells were then cultured at 95% air/5% CO2 at 37° C. for three days.
At the end of the incubation period, the cells were fixed and labeled for Thy-1, a RGC marker, by immunocytochemistry. Cell survival was quantified by manually counting Thy-1-positive healthy cells in each well.

[2] = system: quinone reductase, glutathione-S-transferase, and glutathione reductase; details: various cell lines including human adult retinal pigment epithelial cells; cited from earlier work

SMILES | reduction of the surviving cells ([1]; glutamate 100 μM for 3 days, adult rat RGC) | induction of detoxification enzymes [2] | protection from glutamate-induced toxicity (survival of Thy-1-positive healthy cells) ([1]; sulforaphane 0.5 μM with glutamate 100 μM, 3 days, adult Sprague-Dawley rat RGC)
N[C@@H](CCC(=O)O)C(=O)O [glutamate] | 40-60% |  | 
C[S+]([O-])CCCCN=C=S (stereo not drawn) [sulforaphane] |  | known to induce quinone reductase, glutathione-S-transferase, and glutathione reductase | prevented such toxicity
